Patent publication US6696600B2, “L-DOPA ethyl ester salts and uses thereof” (priority 2001, dated 2004)
Like-named read-outs stand apart in the source and are kept apart here.

Columns and labels:
[1] = Hygroscopicity test: weight gain of solid sample in humidity chamber at RH=80%; type: physicochemical; conditions: for hygroscopicity (in words): RH=80% screening; for weight gain in hygroscopicity test / appearance after exposure in a humidity chamber: RH=80%; for weight gain in hygroscopicity test: T=20±2° C., during 24 hrs
Source text: There are many methods of quantitative evaluation of hygroscopicity of solid products without measuring the hygroscopic point. The most widely used method is based on measuring the weight gain of a solid sample in a humidity chamber. […] This method was used for screening the hygroscopicity of several LDEE salts. It also provides a comparison of the hygroscopic properties of different solids by comparison of water absorption rates under the same conditions.

[2] = pKa and delta pKa (pKa LDEE − pKa acid); type: physicochemical
Source text: Preparation and selection of salts that have different physical properties are detailed in the literature. […]. PKa of LDEE free base is known to be 7.24 [8]. […]. This fact is illustrated in Example 1 below, in which the crystallization of LDEE palmitate was attempted. After dissolution of LDEE base and palmitic acid in absolute alcohol, the solution was cooled, and instead of forming a new salt, pure palmitic acid was crystallized out, and no solid crystalline salt was formed. […]

[3] = Exposure of hygroscopic salts to atmospheric air
[4] = Stability of dihydrates, impurity profile (HPLC), 8 days at 65° C.; type: physicochemical
Description: The stability of succinate dihydrate and fumarate dihydrate were investigated under the following test conditions: 8 days at 65° C. in glass vial (air) (Table 1).

[5] = pH of water solution; type: physicochemical
[6] = background, from references; cited from earlier work
[7] = background statement; cited from earlier work
[8] = cited from earlier work; for pKa (first value): acid or acid salt used for salt preparation
[9] = End, 8 days at 65° C. in glass vial (air)

Row | SMILES | Color stability at RH = 80% ([1]; RH = 80%) [h] | Mean water absorption rate at RH = 80% ([1]; RH = 80%) [mol/kg/h] | Material appearance after 24 hrs at RH = 80% ([1]; RH = 80%) | Weight gain during 24 hrs at RH = 80%,% ([1]; RH = 80%) [%] | hygroscopicity (in words) [1] | weight gain in hygroscopicity test [1] [%] | delta pKa pKaLDEE − pKaacid (first value) [2] | pKa (first value) [8] | also measured
1 | CC(=O)O.CCOC(=O)[C@@H](N)Cc1ccc(O)c(O)c1 [Example 2, LDEE Acetate] | 1.5 | 0.155 | Semi-solid melt | 6.7 | hygroscopic | 6.7 | 2.48 | – | behaviour in atmospheric air (in words) [3]: deliquescent
2 | CCOC(=O)[C@@H](N)Cc1ccc(O)c(O)c1.CS(=O)(=O)O [Example 3, LDEE Mesylate] | >24 | 0.405 | Syrup | 17.5 | hygroscopic | 17.5 | 6.04 | – | behaviour in atmospheric air (in words) [3]: deliquescent
3 | CCOC(=O)[C@@H](N)Cc1ccc(O)c(O)c1.CCOC(=O)[C@@H](N)Cc1ccc(O)c(O)c1.O.O.O=C(O)CCC(=O)O [Example 23, LDEE Succinate Dihydrate] | >72 | 0.006 | White flowable powder | 0.27 | non-hygroscopic | 0.27 | 3.08 | – | water absorption at RH=80% (in words) ([1]; RH = 80%): did not absorb water; appearance after exposure in a humidity chamber ([1]; about 72 hrs): white flowable powder; Assay LDEE (%) [4, 9]: 73.46%; L-DOPA (%) [4, 9]: 0.56%; Unknown RRT = 0.83 (%) [4, 9]: 0.03%; cyc.L-DOPA (%) [4, 9]: 0.03%; Assay LDEE (%) ([4]; Start): 74.1%; L-DOPA (%) ([4]; Start): 0.1%; pH of water solution [5]: 5.8; delta pKa pKaLDEE − pKaacid (second value) [2]: 1.63
4 | CCOC(=O)[C@@H](N)Cc1ccc(O)c(O)c1.CCOC(=O)[C@@H](N)Cc1ccc(O)c(O)c1.O.O.O=C(O)/C=C/C(=O)O [Example 25, LDEE Fumarate Dihydrate] | >48 | 0.0004 | White flowable powder | 0.04 | non-hygroscopic | 0.04 | 4.21 | – | water absorption at RH=80% (in words) ([1]; RH = 80%): did not absorb water; appearance after exposure in a humidity chamber ([1]; more than 48 hrs): white flowable powder; Assay LDEE (%) [4, 9]: 75.0%; L-DOPA (%) [4, 9]: 0.27%; LD-LDEE (%) [4, 9]: 0.03%; Unknown RRT = 0.72 (%) [4, 9]: 0.09%; cyc.L-DOPA (%) [4, 9]: L.T. 0.03%; Assay LDEE (%) ([4]; Start): 75.0%; L-DOPA (%) ([4]; Start): 0.11%; LD-LDEE (%) ([4]; Start): L.T. 0.03%; pH of water solution [5]: 5.5; delta pKa pKaLDEE − pKaacid (second value) [2]: 2.7
5 | CCOC(=O)[C@@H](N)Cc1ccc(O)c(O)c1 [LDEE, L-DOPA ethyl ester] | – | 0.005 | White flowable powder | 0.24 | not a hygroscopic material | – | 0 | – | Color stability at RH = 80%, hrs ([1]; RH = 80%): ˜50 hrs; pH of water solution [5]: 8.2; hygroscopicity (in words) [6]: non-hygroscopic; aqueous solution pH [7]: 8.2
6 | CCCCCCCCCCCCCC(=O)O [Myristic acid] | – | – | – | – | – | – | – | ˜4.8 | –
7 | CCCCCCCC/C=C\CCCCCCCC(=O)O [Oleic acid] | – | – | – | – | – | – | – | ˜4.8 | –
8 | CCCCCCCCCCCCCCCC(=O)O [Palmitic acid] | – | – | – | – | – | – | – | ˜4.8 | DpKa [2]: 2.4; pKa [8]: 4.8
9 | O=C(O)CCCc1ccccc1 [Phenyl Butyric acid] | – | – | – | – | – | – | – | 4.76 | –
10 | CCCCCCCCCCCCCCCCCC(=O)O [Stearic acid] | – | – | – | – | – | – | – | ˜4.8 | –
11 | CCOC(=O)[C@@H](N)Cc1ccc(O)c(O)c1.Cl [hydrochloride salt of LDEE] | – | – | – | – | – | – | – | – | hygroscopicity (in words) [6]: extremely hygroscopic
